Experimental data published in ChEMBL document CHEMBL2040800 (J Med Chem, 2012).
Activity calls are given as the source filed them. The calls are words filed in the database; no cut-off is given here.

Columns and labels:
[1] = Oral bioavailability in Sprague-Dawley rat at 21.7 mg/kg; format: ADME, organism-based; conditions: in vivo
[2] = system: Plasmodium berghei; assay: Antimalarial activity against Plasmodium berghei ANKA expressing GFP infected in Sprague-Dawley rat assessed as reduction in parasitemia at 10 mg/kg, po administered as single dose measured on day 3 post-infection by flow cytometry; format: functional; design: scale not given: the % may be the effect or the level left
[3] = system: Plasmodium falciparum; assay: Antimalarial activity against chloroquine-resistant Plasmodium falciparum K1 after 24 hrs by hypoxanthine incorporation assay; format: functional, organism-based; conditions: K1, 24 h
[4] = Volume of distribution at steady state in Sprague-Dawley rat at […], iv; format: ADME, organism-based; design: dose 4.7 mg/kg, route intravenous; conditions: in vivo, read-out: Vdss
[5] = system: Plasmodium berghei; assay: Antimalarial activity against Plasmodium berghei ANKA expressing GFP infected in Sprague-Dawley rat assessed as reduction in parasitemia at 30 mg/kg, po administered as single dose measured on day 3 post-infection by flow cytometry; format: functional; design: scale not given: the % may be the effect or the level left
[6] = system: Rattus norvegicus; assay: Toxicity in Sprague-Dawley rat assessed as impaired coordination at 50 mg/kg, po administered as 4 doses measured post-third dose; format: organism-based; design: dose 50 mg/kg, route oral; conditions: in vivo
[7] = Plasma protein binding in human by reverse phase gradient HPLC analysis; format: ADME, cell-free; conditions: read-out: PPB (converted)
[8] = system: Plasmodium berghei; assay: Antimalarial activity against Plasmodium berghei ANKA expressing GFP infected in Sprague-Dawley rat assessed as mean survival days of host at 10 mg/kg, po administered as single dose; format: functional
[9] = Apparent terminal half life in Sprague-Dawley rat at 21.7 mg/kg, po; format: ADME, organism-based; design: dose 21.7 mg/kg, route oral; conditions: in vivo, read-out: betat1/2(app) (converted)
[10] = Partition coefficient, log D of the compound at pH 7.4 by phase gradient HPLC analysis; format: physicochemical; conditions: octanol/water
[11] = system: Plasmodium berghei; assay: Antimalarial activity against Plasmodium berghei ANKA expressing GFP infected in Sprague-Dawley rat assessed as mean survival days of host at 30 mg/kg, po administered as single dose; format: functional
[12] = system: Plasmodium falciparum; assay: Antimalarial activity against chloroquine-sensitive Plasmodium falciparum NF54 after 24 hrs by hypoxanthine incorporation assay; format: functional, organism-based; conditions: NF54, 24 h
[13] = Intrinsic clearance in human liver microsomes at 1 uM up to 60 mins; format: ADME, Microsome; conditions: read-out: CLH
[14] = AUC (0 to infinity) in Sprague-Dawley rat at 21.7 mg/kg, po; format: ADME, organism-based; design: time infinity, dose 21.7 mg/kg, route oral; conditions: plasma
[15] = AUC (0 to infinity) in Sprague-Dawley rat at […], iv; format: ADME, organism-based; design: time infinity, dose 4.7 mg/kg, route intravenous; conditions: plasma
[16] = Tmax in Sprague-Dawley rat at 21.7 mg/kg, po; format: ADME, organism-based; design: dose 21.7 mg/kg, route oral; conditions: in vivo
[17] = Kinetic solubility of the compound in phosphate buffer after 30 mins by nephelometry at pH 6.5; format: physicochemical; conditions: read-out: Kinetic_solubility
[18] = Apparent terminal half life in Sprague-Dawley rat at […], iv; format: ADME, organism-based; design: dose 4.7 mg/kg, route intravenous; conditions: in vivo, read-out: betat1/2(app) (converted)
[19] = Half life in human liver microsomes at 1 uM; format: ADME, Microsome
[20] = Total plasma clearance in Sprague-Dawley rat at […], iv; format: ADME, organism-based; design: dose 4.7 mg/kg, route intravenous
[21] = Cmax in Sprague-Dawley rat at 21.7 mg/kg, po; format: ADME, organism-based; design: dose 21.7 mg/kg, route oral; conditions: in vivo
[22] = system: Rattus norvegicus; assay: Toxicity in Sprague-Dawley rat assessed as impaired coordination at 30 mg/kg, po administered as single dose; format: organism-based; design: dose 30 mg/kg, route oral; conditions: in vivo
[23] = Apparent terminal half life in Sprague-Dawley rat at 22.3 mg/kg, po; format: ADME, organism-based; design: dose 22.3 mg/kg, route oral; conditions: in vivo, read-out: betat1/2(app) (converted)
[24] = Apparent terminal half life in Sprague-Dawley rat at 5 mg/kg, po; format: ADME, organism-based; design: dose 5 mg/kg, route oral; conditions: in vivo, read-out: betat1/2(app) (converted)
[25] = Tmax in Sprague-Dawley rat at 22.3 mg/kg, po; format: ADME, organism-based; design: dose 22.3 mg/kg, route oral; conditions: in vivo
[26] = Cmax in Sprague-Dawley rat at 22.3 mg/kg, po; format: ADME, organism-based; design: dose 22.3 mg/kg, route oral; conditions: in vivo
[27] = AUC (0 to infinity) in Sprague-Dawley rat at 22.3 mg/kg, po; format: ADME, organism-based; design: time infinity, dose 22.3 mg/kg, route oral; conditions: plasma
[28] = Tmax in Sprague-Dawley rat at 5 mg/kg, po; format: ADME, organism-based; design: dose 5 mg/kg, route oral; conditions: in vivo
[29] = Oral bioavailability in Sprague-Dawley rat at 22.3 mg/kg; format: ADME, organism-based; conditions: in vivo
[30] = Total blood clearance in Sprague-Dawley rat at […], iv; format: ADME, organism-based; design: dose 4.7 mg/kg, route intravenous; conditions: whole blood
[31] = system: Plasmodium berghei; assay: Antimalarial activity against Plasmodium berghei ANKA expressing GFP infected in Sprague-Dawley rat assessed as host survival at 3 mg/kg, po administered as single dose measured 6 days post-infection; format: functional, organism-based; design: dose 3 mg/kg
[32] = system: Plasmodium berghei; assay: Antimalarial activity against Plasmodium berghei ANKA expressing GFP infected in Sprague-Dawley rat assessed as reduction in parasitemia at 50 mg/kg, po administered as 4 doses measured on day 4 post-infection by flow cytometry; format: functional; design: scale not given: the % may be the effect or the level left
[33] = system: Plasmodium berghei; assay: Antimalarial activity against Plasmodium berghei ANKA expressing GFP infected in Sprague-Dawley rat assessed as total cure from parasite at 50 mg/kg, po administered as 4 doses measured on day 30 post-infection by flow cytometry; format: functional, organism-based; design: dose 50 mg/kg
[34] = system: Plasmodium berghei; assay: Antimalarial activity against Plasmodium berghei ANKA expressing GFP infected in Sprague-Dawley rat assessed as mean survival days of host at 50 mg/kg, po administered as 4 doses; format: functional
[35] = system: Plasmodium berghei; assay: Antimalarial activity against Plasmodium berghei ANKA expressing GFP infected in po dosed Sprague-Dawley rat assessed as reduction in parasitemia administered as single dose measured on day 3 post-infection by flow cytometry; format: functional; conditions: 72 h
[36] = Cmax in Sprague-Dawley rat at 5 mg/kg, po; format: ADME, organism-based; design: dose 5 mg/kg, route oral; conditions: in vivo
[37] = system: Plasmodium berghei; assay: Antimalarial activity against Plasmodium berghei ANKA expressing GFP infected in Sprague-Dawley rat assessed as mean survival days of host at 100 mg/kg, po administered as single dose; format: functional
[38] = system: Plasmodium berghei; assay: Antimalarial activity against Plasmodium berghei ANKA expressing GFP infected in Sprague-Dawley rat assessed as mean survival days of host at 3 mg/kg, po administered as single dose; format: functional
[39] = system: Plasmodium berghei; assay: Antimalarial activity against Plasmodium berghei ANKA expressing GFP infected in Sprague-Dawley rat assessed as reduction in parasitemia at 100 mg/kg, po administered as single dose measured on day 3 post-infection by flow cytometry; format: functional; design: scale not given: the % may be the effect or the level left
[40] = AUC (0 to infinity) in Sprague-Dawley rat at 5 mg/kg, po; format: ADME, organism-based; design: time infinity, dose 5 mg/kg, route oral; conditions: plasma
[41] = Oral bioavailability in Sprague-Dawley rat at 5 mg/kg; format: ADME, organism-based; conditions: in vivo
[42] = system: Plasmodium berghei; assay: Antimalarial activity against Plasmodium berghei ANKA expressing GFP infected in Sprague-Dawley rat assessed as reduction in parasitemia at 3 mg/kg, po administered as single dose measured on day 3 post-infection by flow cytometry; format: functional; design: scale not given: the % may be the effect or the level left

CS(=O)(=O)c1ccc(-c2cnc(N)c(-c3ccc(C(F)(F)F)cc3)c2)cc1
bioavailability [1]: 26% | Activity [2]: 98% | IC50 [3]: 20 nM | Vd [4]: 8 L/kg | Activity [5]: 97.3% | Activity [6]: Toxic | fraction unbound [7]: 0.038 | MSD [8]: 9 days | half-life [9]: 6 h | chromatographic logD [10]: 3.4 | MSD [11]: 15 days | IC50 [12]: 19 nM | microsomal CLint at 1 µM [13]: < 7 µL/min/mg | AUC(0-inf) [14]: 8.27 µM·h | AUC(0-inf) [15]: 6.98 µM·h | Tmax [16]: 3.25 h | solubility kinetic at 0.5 h [17]: < 1.6 µg/mL | half-life [18]: 11.3 h | half-life at 1 µM [19]: > 4.17 h | clearance [20]: 29 mL/min/kg | Cmax [21]: 1 µM | Activity [22]: Non-toxic

COc1ccc(-c2cc(-c3ccc(S(C)(=O)=O)cc3)cnc2N)cn1
half-life [23]: 6.5 h | half-life [24]: 6.7 h | Tmax [25]: 1.75 h | Cmax [26]: 21 µM | AUC(0-inf) [27]: 115 µM·h | Activity [2]: 82% | Vd [4]: 4.3 L/kg | Tmax [28]: 0.25 h | Activity [5]: 99% | bioavailability [29]: > 100% | MSD [8]: 7 days | clearance [30]: 18.3 mL/min/kg | Activity [31]: inactive | Activity [32]: 99.8% | Activity [33]: Active | MSD [34]: >30 days | ED50 [35]: 4.7 mg/kg | ED90 [35]: 17 mg/kg | Cmax [36]: 5.4 µM | chromatographic logD [10]: 2.2 | MSD [11]: 8 days | microsomal CLint at 1 µM [13]: < 28 µL/min/mg | AUC(0-inf) [15]: 13.2 µM·h | MSD [37]: 21 days | half-life [18]: 8 h | MSD [38]: 3 days | Activity [39]: >99.3% | half-life at 1 µM [19]: > 1.65 h | clearance [20]: 16.7 mL/min/kg | AUC(0-inf) [40]: 11.8 µM·h | bioavailability [41]: 83% | Activity [42]: <40%
